Laboratory results published in patent US6933392B2, “Hydroxy substituted fused naphthyl-azoles and fused indeno-azoles and their use for the treatment of glaucoma” (Alcon, Inc., priority 2001, dated 2005).
Counter-ions that a name gives are not always drawn. Like-named read-outs stand apart in the source and are kept apart here.

Tests used:
[1] = molecular target: T1, 5-HT2 receptors in A7r5 rat vascular smooth muscle cells (Rattus norvegicus, UniProt P14842); assay: 5-HT2 functional assay: [Ca2+]i mobilization (FLIPR); type: cell-based; details: for Emax: read-out: Efficacy (Emax, %)
T1 construct: endogenous in cells; host or cells: A7r5 rat vascular smooth muscle cells
Procedure: 5-HT2 Functional Assay: [Ca^2+]i Mobilization
The receptor-mediated mobilization on intracellular calcium ([Ca^2+]i) was studied using the Fluorescence Imaging Plate Reader (FLIPR) instrument. Rat vascular smooth muscle cells, A7r5, were grown in a normal media of DMEM/10% FBS and 10 μg/mL gentamycin. Confluent cell monolayers were trypsinized, pelleted, and re-suspended in normal media. Cells were seeded in a 50 μL volume at a density of 20,000 cells/well in a black wall, 96-well tissue culture plate and grown for 2 days.
On the day of the experiment, one vial of FLIPR Calcium Assay Kit dye was re-suspended in 50 mL of a FLIPR buffer consisting of Hank's Balanced Salt Solution (HBSS), 20 mM HEPES, and 2.5 mM probenecid, pH 7.4. Cells were loaded with the calcium-sensitive dye by addition of an equal volume (50 μL) to each well of the 96-well plate and incubated with dye for 1 h at 23° C.
Compounds were diluted 1:50 in 20% DMSO/20% ethanol. For “hit” screening, compounds were further diluted 1:10 in FLIPR buffer and tested at a final concentration of 10 μM.
The compound plate and cell plate were placed in the FLIPR instrument. At the beginning of an experimental run, a signal test was performed to check the basal fluorescence signal from the dye-loaded cells and the uniformity of the signal across the plate. The basal fluorescence was adjusted between 8000-12000 counts by modifying the exposure time, the camera F-stop, or the laser power. Instrument settings for a typical assay were the following: laser power 0.3-0.6 W, camera F-stop F/2, and exposure time 0.4 sec. An aliquot (25 μL) of the test compound was added to the existing 100 μL dye-loaded cells at a dispensing speed of 50 μL/sec. Fluorescence data were collected in real-time at 1.0 sec intervals for the first 60 secs and at 6.0 sec intervals for an additional 120 secs.

brain 5-HT2 receptors = brain 5-HT2 receptors (Rattus norvegicus, UniProt P14842); assay: 5-HT2 receptor binding assay ([125I]DOI competition); details: competition for [125I]DOI binding, rat or human cerebral cortex homogenates
Procedure: 5-HT2 Receptor Binding Assay
The assay mixture is incubated for 1 hour at 23° C. in polypropylene tubes and the assays terminated by rapid vacuum filtration over Whatman GF/B glass fiber filters previously soaked in 0.3% polyethyleneimine using ice-cold buffer. Test compounds (at different concentrations) are substituted for methiothepin. Filter-bound radioactivity is determined by scintillation spectrometry on a beta counter. The data are analyzed using a non-linear, iterative curve-fitting computer program [Trends Pharmacol. Sci., 16, 413 (1995)] to determine the compound affinity parameter. The concentration of the compound needed to inhibit the [^125I]DOI binding by 50% of the maximum is termed the IC50 or Ki value.

[2] = A7r5 cells, FLIPR, percentage of maximum 5-HT-induced response
[3] = A7r5 cells, FLIPR, read-out: EC50, nM (5-HT2 functional, [Ca2+]i mobilization)

T1 sequence (P14842 whole entry): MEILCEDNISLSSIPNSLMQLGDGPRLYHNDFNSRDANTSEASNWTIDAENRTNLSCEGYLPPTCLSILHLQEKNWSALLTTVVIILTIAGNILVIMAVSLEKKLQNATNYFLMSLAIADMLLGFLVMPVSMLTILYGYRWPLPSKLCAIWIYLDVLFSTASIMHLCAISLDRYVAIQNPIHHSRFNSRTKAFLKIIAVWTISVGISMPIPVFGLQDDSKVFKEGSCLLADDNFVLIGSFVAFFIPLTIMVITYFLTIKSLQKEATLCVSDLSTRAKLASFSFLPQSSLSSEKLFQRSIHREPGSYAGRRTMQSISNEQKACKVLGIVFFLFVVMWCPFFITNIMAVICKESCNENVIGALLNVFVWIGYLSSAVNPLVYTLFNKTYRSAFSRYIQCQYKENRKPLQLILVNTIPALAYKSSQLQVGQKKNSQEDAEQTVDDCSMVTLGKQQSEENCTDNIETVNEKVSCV
brain 5-HT2 receptors, sequence (P14842 whole entry): as above

`COc1cc(CC(C)N)c(OC)cc1I` (stereo not shown) [DOI, reference compound] was tested, and the “Efficacy (Emax, %)” value [1, 2] was 31%, the EC50 [1, 3] was 30.2 nM and the IC50 (brain 5-HT2 receptors) was 0.33 nM.
In the case of `CC(N)Cn1ncc2c1-c1cc(O)ccc1CC2` (stereo not shown) [Example 2, 1-(2-Aminopropyl)-4,5-dihydro-1H-benzo[g]indazol-8-ol Dihydrochloride], the Emax [1, 2] is reported as 46% and the EC50 [1, 3] is reported as 103 nM.
`CC(N)Cn1ncc2ccc3cc(O)ccc3c21` (stereo not shown) [Example 4, 1-(2-Aminopropyl)-2H-benzo[g]indazol-7-ol] showed an EC50 [1] of 211 nM and an Emax [1, 2] of 79%.
Work on `CC(N)Cn1ncc2c1-c1ccc(O)cc1C2` (stereo not shown) [Example 5, 1-(2-Aminopropyl)-1,4-dihydro-indeno[1,2-c]pyrazol-6-ol] yielded an Emax [1, 2] of 64% and an EC50 [1, 3] of 328 nM.
`NCCc1c[nH]c2ccc(O)cc12` [Example 5-HT, 5-Hydroxytryptamine, reference compound] was tested, and the Emax [1, 2] was 107%.
